Experimental findings from the supplement of paper PMC11208160 are described below.

This data set is described as follows: recombinant UMI read abundance after kanamycin selection (control-corrected) (log10(CPM+1)); higher = more efficient recombination; extreme values may be limits of the assay; sequences stand for … in AGTGCAGAGAAAATCGGCCAGTTTTCTCTGCCTGCAGTCCGCATGCCGTGGGACCCCTTGGGTTCTAACCTGTTGCCTAGATTTATGCAGCGGACTGCCTTTCTCCCAAAGTGATAAACCGG…AGGTTGGTTTCACT; site = the 11-nt donor. The protocol:
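Pooled E. coli donor-specificity screen for the IS621 bridge recombinase. Each library member carries a reprogrammed 11-nt donor and a full-length LE bridge RNA expressed in cis from the natural promoter, with a paired donor-binding loop (8-nt LDG + 4-nt RDG) and a target-binding loop fixed to T5. It is co-electroporated with a T5 target plasmid; recombinase is induced with 0.07 mM IPTG and recombinants are selected on kanamycin. UMIs are counted as CPM, averaged over two biological replicates and corrected by the unselected control. Molecule = full bridge RNA written as DNA, built from the T5 scaffold: LDG = donor specificity nt 1-8, RDG = reverse complement of nt 8-11.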
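Further: IS621 bridge recombinase in Escherichia coli cells against a fixed T5 target plasmid.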

Consider “AACTGCGCATGGACCGGTTTTCCCGGTAATCCGTATTTGTG (site AACTGCGCTCA)”, for which the “recombinant UMI read abundance (log10)” value was determined as 0.435. As for “AACTGTCCATGGACCGGTTTTCCCGGTAATCCGTATTTGTG (site AACTGTCCTCA)”, the “recombinant UMI read abundance (log10)” value stood at 0.0176.

Consider “AACTTGACATGGACCGGTTTTCCCGGTAATCCGTATTTGCT (site AACTTGACTAG)”, for which the “recombinant UMI read abundance (log10)” value was 0.971. Turning to “AACTTGACATGGACCGGTTTTCCCGGTAATCCGTATTTGCT (site CACTTGACTAG)”, the “recombinant UMI read abundance (log10)” value turned out to be 1.12.

Regarding “AACTTGACATGGACCGGTTTTCCCGGTAATCCGTATTTGCT (site GACTTGACTAG)”, the “recombinant UMI read abundance (log10)” value stood at 0.665. Take “AACTTGACATGGACCGGTTTTCCCGGTAATCCGTATTTGCT (site TACTTGACTAG)”: the “recombinant UMI read abundance (log10)” value was determined as 1.24. With “AAGAAAACATGGACCGGTTTTCCCGGTAATCCGTATTTGGT (site AAGAAAACTAC)”, the “recombinant UMI read abundance (log10)” value came out at 1.5.

For “AAGAACCCATGGACCGGTTTTCCCGGTAATCCGTATTTGAA (site AAGAACCCTTT)”, the “recombinant UMI read abundance (log10)” value amounted to 1.5. With “AAGAAGACATGGACCGGTTTTCCCGGTAATCCGTATTTGCC (site AAGAAGACTGG)”, the “recombinant UMI read abundance (log10)” value came out at 2.47. Next, “AAGAAGACATGGACCGGTTTTCCCGGTAATCCGTATTTGCC (site AGGAAGACTTG)”: 0.0155; “AAGAAGCCATGGACCGGTTTTCCCGGTAATCCGTATTTGAC (site AAGAAGCCTGT)”: 0. As to “AAGCACACATGGACCGGTTTTCCCGGTAATCCGTATTTGTT (site AAGCACACTAA)”, the “recombinant UMI read abundance (log10)” value was 1.8.

On to “AAGCACGCATGGACCGGTTTTCCCGGTAATCCGTATTTGGA (site AAGCACGCTAC)”, for which the “recombinant UMI read abundance (log10)” value was 0.0278. To “AAGCACGCATGGACCGGTTTTCCCGGTAATCCGTATTTGGA (site AAGCACGCTCC)” belongs 0.0219. Consider “AAGCACGCATGGACCGGTTTTCCCGGTAATCCGTATTTGGA (site AAGCACGCTGC)”, for which the “recombinant UMI read abundance (log10)” value turned out to be 0.

On to “AAGCACGCATGGACCGGTTTTCCCGGTAATCCGTATTTGGA (site AAGCACGCTTC)”, for which the “recombinant UMI read abundance (log10)” value was determined as 0.817.

For the sequence “AAGCACGCATGGACCGGTTTTCCCGGTAATCCGTATTTGGG (site AAACACGCTCC)”, the “recombinant UMI read abundance (log10)” value worked out at 0.00685. As to “AAGCACGCATGGACCGGTTTTCCCGGTAATCCGTATTTGGG (site AACCACGCTCC)”, the “recombinant UMI read abundance (log10)” value amounted to 0.0266. Regarding “AAGCACGCATGGACCGGTTTTCCCGGTAATCCGTATTTGGG (site AAGAACGCTCC)”, the “recombinant UMI read abundance (log10)” value came out at 0.0117.

As for “AAGCACGCATGGACCGGTTTTCCCGGTAATCCGTATTTGGG (site AAGCAAGCTCC)”, the “recombinant UMI read abundance (log10)” value was found to be 0.0142. “AAGCACGCATGGACCGGTTTTCCCGGTAATCCGTATTTGGG (site AAGCACACTCC)”: the “recombinant UMI read abundance (log10)” value was 0.0106. For the sequence “AAGCACGCATGGACCGGTTTTCCCGGTAATCCGTATTTGGG (site AAGCACCCTCC)”, the “recombinant UMI read abundance (log10)” value stood at 0.

On to “AAGCACGCATGGACCGGTTTTCCCGGTAATCCGTATTTGGG (site AAGCACGCTAC)”, for which the “recombinant UMI read abundance (log10)” value was determined as 0.0125. On to “AAGCACGCATGGACCGGTTTTCCCGGTAATCCGTATTTGGG (site AAGCACGCTCA)”, for which the “recombinant UMI read abundance (log10)” value is 0.0347.

“AAGCACGCATGGACCGGTTTTCCCGGTAATCCGTATTTGGG (site AAGCACGCTCC)”: the “recombinant UMI read abundance (log10)” value was 0.133. To “AAGCACGCATGGACCGGTTTTCCCGGTAATCCGTATTTGGG (site AAGCACGCTCG)” belongs 0.00834; to “AAGCACGCATGGACCGGTTTTCCCGGTAATCCGTATTTGGG (site AAGCACGCTCT)”, 0.265; to “AAGCACGCATGGACCGGTTTTCCCGGTAATCCGTATTTGGG (site AAGCACGCTGC)”, 0. With “AAGCACGCATGGACCGGTTTTCCCGGTAATCCGTATTTGGG (site AAGCACGCTTC)”, the “recombinant UMI read abundance (log10)” value stood at 0.012.

As for “AAGCACGCATGGACCGGTTTTCCCGGTAATCCGTATTTGGG (site AAGCACTCTCC)”, the “recombinant UMI read abundance (log10)” value was 0.0617. For “AAGCACGCATGGACCGGTTTTCCCGGTAATCCGTATTTGGG (site AAGCAGGCTCC)”, the “recombinant UMI read abundance (log10)” value is 0.0132. As to “AAGCACGCATGGACCGGTTTTCCCGGTAATCCGTATTTGGG (site AAGCATGCTCC)”, the “recombinant UMI read abundance (log10)” value was found to be 0.0182.

Consider “AAGCACGCATGGACCGGTTTTCCCGGTAATCCGTATTTGGG (site AAGCCCGCTCC)”, for which the “recombinant UMI read abundance (log10)” value amounted to 0.0231.

Turning to “AAGCACGCATGGACCGGTTTTCCCGGTAATCCGTATTTGGG (site AAGCGCGCTCC)”, the “recombinant UMI read abundance (log10)” value was found to be 0.0213. For “AAGCACGCATGGACCGGTTTTCCCGGTAATCCGTATTTGGG (site AAGCTCGCTCC)”, the “recombinant UMI read abundance (log10)” value worked out at 0.0309. Turning to “AAGCACGCATGGACCGGTTTTCCCGGTAATCCGTATTTGGG (site AAGGACGCTCC)”, the “recombinant UMI read abundance (log10)” value turned out to be 0.00889. Next, “AAGCACGCATGGACCGGTTTTCCCGGTAATCCGTATTTGGG (site AAGTACGCTCC)”: 0.0168; “AAGCACGCATGGACCGGTTTTCCCGGTAATCCGTATTTGGG (site AATCACGCTCC)”: 0.0177; “AAGCACGCATGGACCGGTTTTCCCGGTAATCCGTATTTGGG (site ACGCACGCTCC)”: 0.0214. For “AAGCACGCATGGACCGGTTTTCCCGGTAATCCGTATTTGGG (site AGGCACGCTCC)”, the “recombinant UMI read abundance (log10)” value turned out to be 0.0204. As to “AAGCACGCATGGACCGGTTTTCCCGGTAATCCGTATTTGGG (site ATGCACGCTCC)”, the “recombinant UMI read abundance (log10)” value was 0.0113. Next, “AAGCACGCATGGACCGGTTTTCCCGGTAATCCGTATTTGGG (site CAGCACGCTCC)”: 0.00873. To “AAGCACGCATGGACCGGTTTTCCCGGTAATCCGTATTTGGG (site GAGCACGCTCC)” belongs 0.0379; to “AAGCACGCATGGACCGGTTTTCCCGGTAATCCGTATTTGGG (site TAGCACGCTCC)”, 0.0044.

“AAGCGGTCATGGACCGGTTTTCCCGGTAATCCGTATTTGTT (site AAGCGGTCTAA)”: the “recombinant UMI read abundance (log10)” value was 1.4.

Regarding “AAGGATACATGGACCGGTTTTCCCGGTAATCCGTATTTGCC (site AAGGATACTGG)”, the “recombinant UMI read abundance (log10)” value was 2.67. In the case of “AAGGCCCCATGGACCGGTTTTCCCGGTAATCCGTATTTGGT (site AAGGCCCCTAC)”, the “recombinant UMI read abundance (log10)” value was 0.395. As for “AAGGGATCATGGACCGGTTTTCCCGGTAATCCGTATTTGTT (site AAGGGATCTAA)”, the “recombinant UMI read abundance (log10)” value was 2.95. To “AAGGGCTCATGGACCGGTTTTCCCGGTAATCCGTATTTGGC (site AAGGGCTCTGC)” belongs 3.63; to “AAGTAGACATGGACCGGTTTTCCCGGTAATCCGTATTTGCA (site AAGTAGACTTG)”, 2.72; to “AAGTAGACATGGACCGGTTTTCCCGGTAATCCGTATTTGCA (site AGGAAGACTTG)”, 0.52. Next, “AAGTCGACATGGACCGGTTTTCCCGGTAATCCGTATTTGAA (site AAGTCGACTTT)”: 0.435; “AAGTCGCCATGGACCGGTTTTCCCGGTAATCCGTATTTGGT (site AAGTCGCCTAC)”: 0.0178. In the case of “AAGTGTGCATGGACCGGTTTTCCCGGTAATCCGTATTTGTC (site AAGTGTGCTGA)”, the “recombinant UMI read abundance (log10)” value came to 2.99. “AAGTTGTCATGGACCGGTTTTCCCGGTAATCCGTATTTGTC (site AAGTTGTCTGA)”: the “recombinant UMI read abundance (log10)” value stood at 2.09. Next, “AATAAAGCATGGACCGGTTTTCCCGGTAATCCGTATTTGGC (site AATAAAGCTGC)”: 1.32; “AATAAGACATGGACCGGTTTTCCCGGTAATCCGTATTTGCA (site AATAAGACTTG)”: 2.17; “AATAAGACATGGACCGGTTTTCCCGGTAATCCGTATTTGCA (site AGGAAGACTTG)”: 1.4. “AATACTTCATGGACCGGTTTTCCCGGTAATCCGTATTTGAG (site AATACTTCTCT)”: the “recombinant UMI read abundance (log10)” value was determined as 1.6. With “AATAGTACATGGACCGGTTTTCCCGGTAATCCGTATTTGTC (site AATAGTACTGA)”, the “recombinant UMI read abundance (log10)” value turned out to be 1.89. As to “AATAGTGCATGGACCGGTTTTCCCGGTAATCCGTATTTGCC (site AATAGTGCTGG)”, the “recombinant UMI read abundance (log10)” value worked out at 1.5. Regarding “AATATGGCATGGACCGGTTTTCCCGGTAATCCGTATTTGCG (site AATATGGCTCG)”, the “recombinant UMI read abundance (log10)” value worked out at 1.22.

In the case of “AATCAATCATGGACCGGTTTTCCCGGTAATCCGTATTTGCC (site AATCAATCTGG)”, the “recombinant UMI read abundance (log10)” value was 1.98. For “AATCACGCATGGACCGGTTTTCCCGGTAATCCGTATTTGGG (site AAACACGCTCC)”, the “recombinant UMI read abundance (log10)” value came out at 0.0181.

On to “AATCACGCATGGACCGGTTTTCCCGGTAATCCGTATTTGGG (site AACCACGCTCC)”, for which the “recombinant UMI read abundance (log10)” value came out at 0.0334.
